Columns and labels:
Experiment in all cases: post-emergence herbicidal action, greenhouse experiments
BIDPI = assay type: in vivo, hairy beggarticks; conditions: for Harmful plant/action (post-emergence herbicidal action): scale 0 to 100
From the text: (§1) The culture containers used were plastic pots with loamy sand with approximately 3.0% humus as substrate. The seeds of the test plants were sown separately for each species.
(§2) For the purposes of the post-emergence treatment, the test plants were first grown to a height of 3 to 15 cm, depending on the growth habit, and only then treated with the active ingredients which were suspended or emulsified in water. To this end, the test plants were either sown directly and grown on in the same containers, or else they were first grown separately as seedlings and then transplanted into the experimental containers a few days prior to treatment. […]
(§3) The plants were kept at temperatures of 10-25° C. or 20-35° C., depending on the species. The experimental period extended over 2 to 4 weeks. During this time, the plants were tended, and their response to the individual regimes were evaluated.
(§4) For the evaluation, a scale of 0 to 100 was used. 100 means no emergence of the plants, or complete destruction of at least the aerial parts, and 0 means no damage or normal course of growth.
(§5) The plants used in the greenhouse experiments consisted of the following species: […]

CHEAL = assay type: in vivo, lambsquarters; conditions: for Harmful plant/action (post-emergence herbicidal action): scale 0 to 100
From the text: as §1
(§6) For the purposes of the post-emergence treatment, the test plants were first grown to a height of 3 to 15 cm, depending on the growth habit, and only then treated with the active ingredients which were suspended or emulsified in water. To this end, the test plants were either sown directly and grown on in the same containers, or else they were first grown separately as seedlings and then transplanted into the experimental containers a few days prior to treatment. The application rate for the post-emergence treatment was 31.3, 15.6, 7.8 and/or 3.9 g of a.s./ha.
as §3, §4, §5

SETFA = assay type: in vivo, giant foxtail; conditions: for Harmful plant/action (post-emergence herbicidal action): scale 0 to 100
From the text: as §1, §2, §3, §4, §5

ECHCG = assay type: in vivo, barnyardgrass
From the text: as §1, §6, §3, §4, §5

BRAPL = assay type: in vivo, alexandergrass
From the text: as §1, §6, §3, §4, §5

[1] = 31.3 and 15.6 g of a.s./ha, compared with Comparative Example VA
[2] = application rate 15.6 g/ha a.s.
[3] = application rate 31.3 g/ha a.s.
[4] = 7.8 and 3.9 g of a.s./ha, compared with Comparative Example VB
[5] = 7.8 and 3.9 g of a.s./ha, compared with Comparative Example VC

`COc1cc(-c2ncc(C(F)(F)F)c(C)c2Cl)c(F)cc1Cl` [IAa.3, 2-(2-fluoro-4-chloro-5-methoxyphenyl-1-yl)-3-chloro-4-methyl-5-trifluoromethylpyridine] was tested, and the “action against the harmful plant compared with Comparative Example” value (shortened to “action … compared with Comparative Example”) (BIDPI; [1]) was “considerably better action”, the “Harmful plant/action (post-emergence herbicidal action)” value (“Harmful plant/action” for short) (BIDPI; [2]) was 60 and the “Harmful plant/action” value (BIDPI; [3]) was 60. The “action … compared with Comparative Example” value (CHEAL; [1]) was “considerably better action”, the “Harmful plant/action” value (CHEAL; [2]) was 100 and the “Harmful plant/action” value (CHEAL; [3]) was 100. For the same molecule, the “action … compared with Comparative Example” value (SETFA; [1]) was “considerably better action”, the “Harmful plant/action” value (SETFA; [2]) was 95 and the “Harmful plant/action” value (SETFA; [3]) was 100. For the same molecule, the “action … compared with Comparative Example” value (ECHCG; [1]) was “considerably better action”, the “Harmful plant/action” value (ECHCG; application rate 15.6 g/ha a.s., scale 0 to 100) was 90 and the “Harmful plant/action” value (ECHCG; application rate 31.3 g/ha a.s., scale 0 to 100 (100 = complete destruction, 0 = no damage)) was 100.

In the case of `C#CCOc1cc(-c2ncc(C(F)(F)F)c(C)c2Cl)c(F)cc1Cl` [IAa.10, 2-(2-Fluoro-4-chloro-5-propargyloxyphenyl)-3-chloro-4-methyl-5-trifluoromethylpyridine], the “action … compared with Comparative Example” value (BIDPI; [4]) was “considerably better action”, the “Harmful plant/action” value (BIDPI; application rate 3.9 g/ha a.s.) was 100 and the “Harmful plant/action” value (BIDPI; application rate 7.8 g/ha a.s.) was 100. For the same molecule, the “Harmful plant/action” value (CHEAL; application rate 3.9 g/ha a.s.) was 100, the “Harmful plant/action” value (CHEAL; application rate 7.8 g/ha a.s.) was 100 and the “action … compared with Comparative Example” value (SETFA; [4]) was “considerably better action”. The “Harmful plant/action” value (SETFA; application rate 3.9 g/ha a.s.) was 98, the “Harmful plant/action” value (SETFA; application rate 7.8 g/ha a.s.) was 98 and the “action … compared with Comparative Example” value (ECHCG; [4]) was “considerably better action”. The “Harmful plant/action” value (ECHCG; application rate 3.9 g/ha a.s., scale 0 to 100) was 70 and the “Harmful plant/action” value (ECHCG; application rate 7.8 g/ha a.s., scale 0 to 100) was 85.

`CCc1nc2c(Cl)cc(F)c(-c3ncc(C(F)(F)F)c(C)c3Cl)c2o1` [ICe.3, 4-Chloro-7-[3-chloro-4-methyl-5-(trifluoromethyl)-2-pyridinyl]-2-ethyl-6-fluoro-1,3-benzoxazole] was tested, and the “action … compared with Comparative Example” value (BIDPI; [5]) was “considerably better action”, the “post-emergence herbicidal action, BIDPI” value (BIDPI; application rate 3.9 g/ha a.s.) was 100 and the “post-emergence herbicidal action, BIDPI” value (BIDPI; application rate 7.8 g/ha a.s.) was 100. The “action … compared with Comparative Example” value (BRAPL; [5]) was “considerably better action”, the “post-emergence herbicidal action, BRAPL” value (BRAPL; application rate 3.9 g/ha a.s.) was 80 and the “post-emergence herbicidal action, BRAPL” value (BRAPL; application rate 7.8 g/ha a.s.) was 90. For the same molecule, the “action … compared with Comparative Example” value (SETFA; [5]) was “considerably better action”, the “post-emergence herbicidal action, SETFA” value (SETFA; application rate 3.9 g/ha a.s.) was 100 and the “post-emergence herbicidal action, SETFA” value (SETFA; application rate 7.8 g/ha a.s.) was 100.

For `CCc1nc2c(Cl)cc(F)c(-c3ncc(C(F)(F)F)cc3Cl)c2o1` [VC, reference compound], the “post-emergence herbicidal action, BIDPI” value (BIDPI; application rate 3.9 g/ha a.s.) was 50, the “post-emergence herbicidal action, BIDPI” value (BIDPI; application rate 7.8 g/ha a.s.) was 55 and the “post-emergence herbicidal action, BRAPL” value (BRAPL; application rate 3.9 g/ha a.s.) was 40. For the same molecule, the “post-emergence herbicidal action, BRAPL” value (BRAPL; application rate 7.8 g/ha a.s.) was 55, the “post-emergence herbicidal action, SETFA” value (SETFA; application rate 3.9 g/ha a.s.) was 90 and the “post-emergence herbicidal action, SETFA” value (SETFA; application rate 7.8 g/ha a.s.) was 95.

In the case of `C#CCN1C(=O)COc2cc(F)c(-c3ncc(C(F)(F)F)cc3Cl)cc21` [VD, reference compound], the “post-emergence herbicidal action, BIDPI” value (BIDPI; application rate 1.9 g/ha a.s.) was 50, the “post-emergence herbicidal action, BIDPI” value (BIDPI; application rate 3.9 g/ha a.s.) was 55 and the “post-emergence herbicidal action, SETFA” value (SETFA; application rate 1.9 g/ha a.s.) was 60. The “post-emergence herbicidal action, SETFA” value (SETFA; application rate 3.9 g/ha a.s.) was 90.
